Experimental data as given in US20240299353A1, “COMPOSITIONS AND METHODS FOR TREATING […] 5-MEO-DMT” (Alvarius Pharmaceuticals Ltd., priority 2021, published 2024).

Tests used:
pCREB = test: Western blot of pCREB in brain regions, chronic cocaine ± 5-MeO-DMT; format: in vivo, Male Wistar rats; conditions: for pCREB levels: 24 h
Source text: (§1) Male Wistar rats aged 7 weeks were acclimatized to the facility for 1 week prior to the beginning of the study. […] Animals were euthanized 23- or 119-hours following vehicle or 5-MeO-DMT administration.
(§2) Following euthanasia brain regions of interest were isolated. Briefly, the olfactory bulbs were removed before the brain was placed in a rat brain matrix (FIG. 2A). Sterile blades were inserted at positions 2 and 3 (FIG. 2B) to extract a coronal slice containing the Bregma+˜0.2-+˜2.2 coordinates (FIG. 2C). From this tissue slice a blunted 12 G needle was used to punch dissect the NAc and dorsal striatum (DS) (FIG. 2D-2E) identified using the rat brain atlas (Panxinos and Watson 2nd edition). The PFC, hippocampus (Hip) and amygdala (Amyg) were then blunt dissected (FIG. 3A-3D). All regions were frozen in liquid nitrogen and stored at −80° C. until processed.
(§3) These treatment groups were used for the molecular assessment of addiction-linked markers.
(§4) Determination of protein concentration—a bicinchoninic acid assay (BCA, ThermoFisher) was conducted to determine the total protein concentration in tissue lysates following manufacturer's instructions. Briefly, bovine serum albumin (BSA) standards were prepared in a serial dilution (0-2.0 mg protein/ml) and 200 μl working reagent (50:1, reagent A: reagent B) was added to each of the standards and samples in a 96 well plate (Greiner). For tissue lysates a 1:10 dilution was performed with cell lysis buffer to ensure absorbance values lay within the working range established by the standards. All samples and standards were added in duplicate. The plate was covered and incubated for 30 mins at 37° C. before absorbance was read at 562 nm on a plate reader (SpectraMax M3). The absorbance values were used to form a standard curve of known protein concentrations and protein concentration of samples were derived using the equation of the line. All samples were standardized to the lowest protein concentration using distilled H20 (dH2O).
SDS-PAGE and Western Blotting—Following equalisation of protein concentrations, 6× sample loading buffer (15% SDS, 15% […], 50% glycerol, 0.01% bromophenol blue, […]) was added to each sample using a dilution factor of 1:5 of the total volumes before boiling at 100° C. for 5 mins. Samples were stored at −20° C. until use. One dimensional sodium-dodecyl-sulphate polyacrylamide gel electrophoresis (SDS-PAGE) was used for protein separation based on molecular weight. The percentage of acrylamide in the resolving or stacking gel was determined by the molecular weight of the protein of interest. […] Protein expression was quantified using Image Studio Lite (Version 5.2) and expression intensities were normalized to a house keeping protein, α-Tubulin or β-actin.

5-HT2Rs = conditions: canonical signaling activity measured; read-out: affinity for the 5-HT2Rs; cited from earlier work
G9a = test: Western blot of G9a in brain regions, chronic cocaine ± 5-MeO-DMT; format: in vivo, Male Wistar rats
Source text: as §1, §2, §3, §4
(§5) SDS-PAGE and Western Blotting—Following equalisation of protein concentrations, 6× sample loading buffer (15% SDS, 15% […], 50% glycerol, 0.01% bromophenol blue, […]) was added to each sample using a dilution factor of 1:5 of the total volumes before boiling at 100° C. for 5 mins. Samples were stored at −20° C. until use. One dimensional sodium-dodecyl-sulphate polyacrylamide gel electrophoresis (SDS-PAGE) was used for protein separation based on molecular weight. The percentage of acrylamide in the resolving or stacking gel was determined by the molecular weight of the protein of interest. In this instance all gels consisted of a 5% stacking gel and a 10% resolving gel with the exception of mGluR5, G9a (8%) and H3K9Me2 (12%). 20 μg of protein was loaded and resolved using SDS-PAGE. Gel electrophoresis was conducted at 80V while the protein was in the stacking gel, once it migrated to the resolving gel the voltage was increased to 120V and ran for 90 mins. Samples were transferred to a 0.45 μm polyvinylidene difluoride (PVDF) membrane (Analab) for 1 hour at 100V and blocked in 5% milk blocking solution made in tris-buffered saline containing tween®-20 (TBS-T, Sigma) for 90 mins. Primary antibodies (FIG. 5) were diluted in 5% BSA in TBS-T and incubated with membranes overnight at 4° C. or for 2 hours at room temperature. After incubation with primary antibodies the membranes were washed in TBS-T for 4×10 minutes before incubation with 1:2000 anti-rabbit and 1:2000 anti-mouse Alexa Fluro® conjugated secondary antibodies (Invitrogen) in 2% milk for 1 hour at room temperature. Membranes were washed in TBS-T for 4×10 minutes and in TBS for 1×10-minute wash. Proteins were visualized using Odyssey® infrared imaging system. Protein expression was quantified using Image Studio Lite (Version 5.2) and expression intensities were normalized to a house keeping protein, α-Tubulin or β-actin.

[1] = test system: top 10 cocaine-dysregulated biological pathways in the hippocampus; test: Biological pathway analysis (IPA) of transcriptomics, cocaine-dysregulated pathways; format: in vivo, Male Wister rats; conditions: single treatment
Procedure: Animals were then randomly allocated to one of five groups and received a single i.p. injection of one of vehicle, 5 mg/kg 5-Meo-DMT, 0.14 mg/kg LSD, 1 mg/kg psilocybin, or 1 mg/kg DOI. On day 15, animals were euthanised and the hippocampus blunt dissected, snap frozen in liquid nitrogen and stored at −80° C. until further processing.
Subsequent pathway analyses were done using Ingenuity Pathway Analysis (IPA). Analysis settings for IPA included the Ingenuity Knowledge Base (Genes Only), direct and indirect relationships, and endogenous chemicals of the previously filtered list of differentially expressed genes. IPA was filtered to only consider molecules where the species were human, rat, or mouse and the confidence can be experimentally observed. Canonical pathways were utilized in pathway analysis, where the spreadsheet organized the values of significance to −log(p-value) and the rate of regulation to the z-score. Negative z-score values indicate downregulation and positive values indicate upregulation.

[2] = i.p. administration, rodents; cited from earlier work
[3] = test system: MAO-A and cytochrome P450 2D6 (CYP2D6); conditions: cited from earlier work
FosB = test: Western blot of FosB in brain regions, chronic cocaine ± 5-MeO-DMT; format: in vivo, Male Wistar rats
Source text: as §1, §2, §3, §4, §5

With `COc1ccc2[nH]cc(CCN(C)C)c2c1` [5-MeO-DMT, 5-methoxy-N,N-dimethyltryptamine] as the compound, how does the pCREB levels (pCREB; PFC, cocaine+20 mg/kg 5-MeO-DMT relative to saline+20 mg/kg) read?
The pCREB levels was “decrease in pCREB”.

And the “proportion of pCREB relative to total CREB” value (pCREB; PFC, 24 h and 120 h, all treatments)?
Its value is “no change”.

And the pCREB levels (pCREB; amygdala, 20 mg/kg 5-MeO-DMT in saline-treated animals)?
Its pCREB levels is “increased”.

What about the “proportion of pCREB” value (pCREB; amygdala, 24 h and 120 h, any of the treatments) of the same compound?
The value was “unchanged by any of the treatments”.

And the Ki (5-HT2Rs)?
The Ki was over 1000 nM.

What about the G9a expression (G9a; PFC, 24 h, cocaine+20 mg/kg 5-MeO-DMT relative to saline+vehicle) of the same compound?
Its G9a expression is “significant decrease in G9a expression”.

What about the G9a expression (G9a; dorsal striatum, 24 h, 20 mg/kg 5-MeO-DMT alone) of the same compound?
Its G9a expression is “increased G9a expression levels”.

And the G9a expression (G9a; dorsal striatum, 24 h, cocaine + either concentration of 5-MeO-DMT (10 or 20 mg/kg))?
Its G9a expression is “significantly reduced G9a levels relative to the cocaine+vehicle group”.

And the G9a expression (G9a; dorsal striatum, 120 h, 20 mg/kg 5-MeO-DMT alone)?
Its G9a expression is “remained significantly elevated”.

What about the G9a expression (G9a; hippocampus, 5-MeO-DMT alone) of the same compound?
The G9a expression was “no change in enzyme expression”.

What about the G9a expression (G9a; hippocampus, 24 h, cocaine+20 mg/kg 5-MeO-DMT) of the same compound?
The G9a expression was “normalised the cocaine-induced decrease in G9a”.

And the “number of the top 10 dysregulated pathways corrected” value [1]?
The value was 9 pathways.

And the “top 10 cocaine-dysregulated biological pathways corrected” value [1]?
Its value is 90%.

And the “terminal half-life (t½)” value [2]?
Its value is 12 to 19 min.

What about the “time of maximal drug concentration” value [2] of the same compound?
Its value is 5 to 7 min.

What about the primary metabolic pathways [3] of the same compound?
Its primary metabolic pathways is “deamination by MAO-A and O-demethylation by cytochrome P450 2D6 (CYP2D6)”.

And the FosB expression (FosB; PFC, 24 h and 120 h, any of the treatments)?
Its FosB expression is “unchanged by any of the treatments”.

And the FosB expression (FosB; amygdala, 24 h, any treatment)?
The FosB expression was “no change in FosB levels”.

And the FosB expression (FosB; amygdala, 120 h, cocaine x 5-MeO-DMT interaction p=0.0353)?
Its FosB expression is “no post hoc differences between treatment groups”.

And the FosB expression (FosB; dorsal striatum, 24 h, 5-MeO-DMT alone)?
Its FosB expression is “does not regulate the expression”.

What about the FosB expression (FosB; dorsal striatum, 120 h, irrespective of the treatment group) of the same compound?
The FosB expression was “no change in expression levels”.

And the FosB expression (FosB; nucleus accumbens, 24 h, cocaine+10 mg/kg 5-MeO-DMT (1 h post last cocaine))?
Its FosB expression is “increase FosB expression”.

What about the FosB expression (FosB; nucleus accumbens, 24 h, cocaine+20 mg/kg 5-MeO-DMT (1 h post last cocaine)) of the same compound?
The FosB expression was “no significant difference in FosB expression levels relative to the saline+vehicle control group”.

What about the FosB expression (FosB; nucleus accumbens, 24 h, saline+10 mg/kg 5-MeO-DMT single dose) of the same compound?
The FosB expression was “not 10 mg/kg increasing expression”.

And the FosB expression (FosB; nucleus accumbens, 24 h, saline+20 mg/kg 5-MeO-DMT single dose)?
The FosB expression was “increasing expression”.

What about the FosB expression (FosB; nucleus accumbens, 120 h, 5-MeO-DMT alone) of the same compound?
Its FosB expression is “does not persist to 120 hours”.
